Measurements: patent US9539233B2, “Gallium formulation for the treatment and prevention of infectious diseases” (Aridis Pharmaceuticals Inc., priority 2009, dated 2017)
Where two headings read alike, the source gives them in different places.

Legend:
P. aeruginosa = details: for MIC: iron-starved BM-2 broth
Pa [1] = details: i.t. inoculation of a lethal dose of Pa followed by nasal instillation of a bolus of liquid; mouse; cited from earlier work
Pa [2] = details: against Pa; cited from earlier work
B. anthracis 7702 cells = type: cell-based; details: 1:1 gallium-to-citrate molar ratio, approximately 20 hours of growth

C[C@H]1[C@H](NC(=O)/C(=N\OC(C)(C)C(=O)O)c2csc(N)n2)C(=O)N1S(=O)(=O)O [Aztreonam]
S: susceptibility category (R/S/I) (P. aeruginosa; Mucoid Strain 20JR) | susceptibility category (R/S/I) (P. aeruginosa; Mucoid Strain 35LK) | susceptibility category (R/S/I) (P. aeruginosa; Non-mucoid Strain 30IX) | susceptibility category (R/S/I) (P. aeruginosa; Non-mucoid Strain 30JS)
R: susceptibility category (R/S/I) (P. aeruginosa; Mucoid Strain 41JQ) | susceptibility category (R/S/I) (P. aeruginosa; Mucoid Strain 62LL) | susceptibility category (R/S/I) (P. aeruginosa; Mucoid Strain 96JC) | susceptibility category (R/S/I) (P. aeruginosa; Mucoid Strain 97JE) | susceptibility category (R/S/I) (P. aeruginosa; Non-mucoid Strain 9HN) | susceptibility category (R/S/I) (P. aeruginosa; Non-mucoid Strain 38LL) | susceptibility category (R/S/I) (P. aeruginosa; Non-mucoid Strain 39IV) | susceptibility category (R/S/I) (P. aeruginosa; Non-mucoid Strain 46IV)
I: susceptibility category (R/S/I) (P. aeruginosa; Mucoid Strain 47JS) | susceptibility category (R/S/I) (P. aeruginosa; Non-mucoid Strain 55HY)

O=[N+]([O-])[O-].O=[N+]([O-])[O-].O=[N+]([O-])[O-].[Ga+3] [Gallium, gallium nitrate]
0.003: OD600 nm (B. anthracis 7702 cells; Gallium concentration 88.9 μM)
good protection: protection (Pa [1])
<1 µg/mL: MIC (P. aeruginosa; Mucoid Strain 20JR, 24 hours) | MIC (P. aeruginosa; Mucoid Strain 35LK, 24 hours) | MIC (P. aeruginosa; Mucoid Strain 47JS, 24 hours) | MIC (P. aeruginosa; Mucoid Strain 62LL, 24 hours) | MIC (P. aeruginosa; Mucoid Strain 96JC, 24 hours) | MIC (P. aeruginosa; Mucoid Strain 97JE, 24 hours) | MIC (P. aeruginosa; Non-mucoid Strain 30IX, 24 hours) | MIC (P. aeruginosa; Non-mucoid Strain 30JS, 24 hours) | MIC (P. aeruginosa; Non-mucoid Strain 38LL, 24 hours) | MIC (P. aeruginosa; Non-mucoid Strain 39IV, 24 hours) | MIC (P. aeruginosa; Non-mucoid Strain 46IV, 24 hours) | MIC (P. aeruginosa; Non-mucoid Strain 55HY, 24 hours)
<2 µg/mL: MIC (P. aeruginosa; Non-mucoid Strain 9HN, 24 hours)
approximately 0.7 μg/mL: bactericidal concentration (MBC) (Pa [2]) | minimum inhibitory concentration (MIC90) (Pa [2])
0.001: OD600 nm (B. anthracis 7702 cells; Gallium concentration 27.1 μM)
<32 µg/mL: MIC (P. aeruginosa; Mucoid Strain 41JQ, 24 hours)
0.000: OD600 nm (B. anthracis 7702 cells; Gallium concentration 6.8 μM, TSB, 37° C.) | OD600 nm (B. anthracis 7702 cells; Gallium concentration 23.3 μM) | OD600 nm (B. anthracis 7702 cells; Gallium concentration 614.8 μM) | OD600 nm (B. anthracis 7702 cells; Gallium concentration 1709.9 μM)

NC[C@H]1O[C@H](O[C@H]2[C@H](O)[C@@H](O[C@H]3O[C@H](CO)[C@@H](O)[C@H](N)[C@H]3O)[C@H](N)C[C@@H]2N)[C@H](N)C[C@@H]1O [Tobramycin]
S: susceptibility category (R/S/I) (P. aeruginosa; Mucoid Strain 20JR) | susceptibility category (R/S/I) (P. aeruginosa; Mucoid Strain 62LL) | susceptibility category (R/S/I) (P. aeruginosa; Non-mucoid Strain 30JS) | susceptibility category (R/S/I) (P. aeruginosa; Non-mucoid Strain 39IV)
128 µg/mL: MIC (P. aeruginosa; Pseudomonas aeruginosa, 24 h, Non-mucoid Strain 9HN) | MIC (P. aeruginosa; Pseudomonas aeruginosa, 24 h, Non-mucoid Strain 55HY)
R: susceptibility category (R/S/I) (P. aeruginosa; Mucoid Strain 41JQ) | susceptibility category (R/S/I) (P. aeruginosa; Mucoid Strain 47JS) | susceptibility category (R/S/I) (P. aeruginosa; Mucoid Strain 96JC) | susceptibility category (R/S/I) (P. aeruginosa; Mucoid Strain 97JE) | susceptibility category (R/S/I) (P. aeruginosa; Non-mucoid Strain 9HN) | susceptibility category (R/S/I) (P. aeruginosa; Non-mucoid Strain 30IX) | susceptibility category (R/S/I) (P. aeruginosa; Non-mucoid Strain 46IV) | susceptibility category (R/S/I) (P. aeruginosa; Non-mucoid Strain 55HY)
I: susceptibility category (R/S/I) (P. aeruginosa; Mucoid Strain 35LK) | susceptibility category (R/S/I) (P. aeruginosa; Non-mucoid Strain 38LL)
